According to ChEMBL document CHEMBL5236589, “Design and Structural Optimization of Orally Bioavailable SOS1 Inhibitors for the Treatment of KRAS-Driven Carcinoma” (J Med Chem, 2022):

Assays:
[1] = Inhibition of SOS1/KRAS G13D mutant protein-protein interaction in human DLD-1 cells assessed as ERK1/2 phosphorylation measured after 1 hr by homogeneous time-resolved fluorescence (HTRF) method; type: cell-based; conditions: DLD-1, 1 h
[2] = AUC in ICR mouse at 20 mg/kg, po by LC-MS/MS analysis; type: ADME, organism-based; set-up: dose 20 mg/kg, route po; conditions: in vivo
[3] = Elimination rate constant in ICR mouse at 20 mg/kg, po by LC-MS/MS analysis; type: ADME, organism-based; conditions: in vivo; for k el: ICR; for Kel: po, 20 mg/kg
[4] = Half life in ICR mouse at 20 mg/kg, po by LC-MS/MS analysis; type: ADME, organism-based; conditions: in vivo; for half-life: ICR; for t1/2: po, 20 mg/kg
[5] = Cmax in ICR mouse at 20 mg/kg, po by LC-MS/MS analysis; type: ADME, organism-based; set-up: dose 20 mg/kg, route po; conditions: in vivo
[6] = MRT in ICR mouse at 20 mg/kg, po by LC-MS/MS analysis; type: ADME, organism-based; conditions: in vivo
[7] = Tmax in ICR mouse at 20 mg/kg, po by LC-MS/MS analysis; type: ADME, organism-based; conditions: in vivo
SOS1-KRAS = SOS1-KRAS (Homo sapiens, UniProt Q07889); assay: Inhibition of human recombinant SOS1 (residue 564-1049)/KRAS G12C mutant protein-protein interaction at incubated for 25 degC for 60 mins by homogeneous time-resolved fluorescence (HTRF) method
SOS1-KRAS, sequence (Q07889 whole entry, looked up, stated change not applied): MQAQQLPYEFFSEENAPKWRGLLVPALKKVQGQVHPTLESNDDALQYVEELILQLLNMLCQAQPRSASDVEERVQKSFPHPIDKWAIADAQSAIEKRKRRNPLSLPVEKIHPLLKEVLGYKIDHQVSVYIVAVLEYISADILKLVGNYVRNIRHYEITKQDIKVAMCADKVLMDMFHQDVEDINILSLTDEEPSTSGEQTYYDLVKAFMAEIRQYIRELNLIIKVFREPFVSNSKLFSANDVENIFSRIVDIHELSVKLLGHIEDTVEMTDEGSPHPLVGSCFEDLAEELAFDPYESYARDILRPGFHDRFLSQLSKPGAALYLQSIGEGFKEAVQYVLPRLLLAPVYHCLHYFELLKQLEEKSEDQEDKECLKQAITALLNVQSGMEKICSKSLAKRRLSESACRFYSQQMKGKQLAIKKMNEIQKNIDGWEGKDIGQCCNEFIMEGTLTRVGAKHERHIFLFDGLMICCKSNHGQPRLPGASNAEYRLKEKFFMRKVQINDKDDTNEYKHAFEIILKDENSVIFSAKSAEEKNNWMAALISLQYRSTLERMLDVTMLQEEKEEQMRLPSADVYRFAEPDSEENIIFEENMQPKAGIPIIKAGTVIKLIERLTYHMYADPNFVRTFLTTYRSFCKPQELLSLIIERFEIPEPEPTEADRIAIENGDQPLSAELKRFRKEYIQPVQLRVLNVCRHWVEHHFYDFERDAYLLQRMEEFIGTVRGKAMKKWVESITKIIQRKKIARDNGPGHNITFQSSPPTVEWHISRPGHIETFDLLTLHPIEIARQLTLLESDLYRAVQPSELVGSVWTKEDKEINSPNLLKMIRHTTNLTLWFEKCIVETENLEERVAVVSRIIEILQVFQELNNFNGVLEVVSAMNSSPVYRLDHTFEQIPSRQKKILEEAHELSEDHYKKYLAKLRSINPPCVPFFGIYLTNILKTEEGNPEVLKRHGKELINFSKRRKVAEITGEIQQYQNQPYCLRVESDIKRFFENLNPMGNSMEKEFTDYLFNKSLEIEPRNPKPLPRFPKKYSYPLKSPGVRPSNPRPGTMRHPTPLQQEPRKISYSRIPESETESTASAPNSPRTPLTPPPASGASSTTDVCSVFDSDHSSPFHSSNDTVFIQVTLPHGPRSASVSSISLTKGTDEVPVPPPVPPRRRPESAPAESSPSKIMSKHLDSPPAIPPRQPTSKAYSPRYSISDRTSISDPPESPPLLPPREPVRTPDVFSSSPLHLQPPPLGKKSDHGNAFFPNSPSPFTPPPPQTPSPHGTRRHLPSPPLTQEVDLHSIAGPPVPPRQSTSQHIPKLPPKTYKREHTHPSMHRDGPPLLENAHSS

[8] = Cmax in ICR mouse at 10 mg/kg, po by LC-MS/MS analysis; type: ADME, organism-based; set-up: dose 10 mg/kg, route po; conditions: in vivo
[9] = Elimination rate constant in ICR mouse at 10 mg/kg, po by LC-MS/MS analysis; type: ADME, organism-based; conditions: in vivo
[10] = Half life in ICR mouse at 10 mg/kg, po by LC-MS/MS analysis; type: ADME, organism-based; conditions: in vivo
[11] = Tmax in ICR mouse at 10 mg/kg, po by LC-MS/MS analysis; type: ADME, organism-based; conditions: in vivo
[12] = AUC in ICR mouse at 10 mg/kg, po by LC-MS/MS analysis; type: ADME, organism-based; set-up: dose 10 mg/kg, route po; conditions: in vivo
[13] = MRT in ICR mouse at 10 mg/kg, po by LC-MS/MS analysis; type: ADME, organism-based; conditions: in vivo

| Structure (SMILES) | IC50 [1] [nM] | AUC [2] [ng·h/mL] | k el [3] [s⁻¹] | half-life [4] [h] | Cmax [5] [ng/mL] | MRT [6] [h] | Tmax [7] [h] | also measured |
| --- | --- | --- | --- | --- | --- | --- | --- | --- |
| Cc1nc(N[C@H](C)c2cccc(C(F)F)c2F)c2cc3c(cc2n1)OC[C@H]1CN(C2CN(C)C2)CCN31 | 166 |  |  |  |  |  |  |  |
| Cc1nc(N[C@H](C)c2cccc(C(F)F)c2F)c2cc3c(cc2n1)OC[C@H]1CN(C(=O)C2(F)CC2)CCN31 | 1.7 | 2100 | 8.33e-05 | 2.34 | 582 | 2.59 | 1.5 |  |
| Cc1nc(N[C@H](C)c2cccc(C(F)F)c2F)c2cc3c(cc2n1)OC[C@H]1CN(C(=O)N2CCOCC2)CCN31 | 9.7 | 872 | 0.0001 | 1.78 | 356 | 2.14 | 0.5 |  |
| Cc1nc(N[C@H](C)c2cccc(C(F)F)c2F)c2cc3c(cc2n1)OC[C@H]1CN(C(=O)N2CCN(C)CC2)CCN31 | 99 |  |  |  |  |  |  |  |
| Cc1nc(N[C@H](C)c2cccc(C(F)F)c2F)c2cc3c(cc2n1)OC[C@H]1CN(C(=O)C2CCN(C)CC2)CCN31 | 98 |  |  |  |  |  |  |  |
| CC(=O)N1CCN2c3cc4c(N[C@H](C)c5cc(N)cc(C(F)(F)F)c5)nc(C)nc4cc3OC[C@@H]2C1 | 48 |  |  |  |  |  |  | IC50 (SOS1-KRAS): 12.8 nM |
| Cc1nc(N[C@H](C)c2cccc(C(F)F)c2F)c2cc3c(cc2n1)OC[C@H]1CN(C(=O)c2ccnn2C)CCN31 | 691 |  |  |  |  |  |  |  |
| CC(=O)N1CCN2c3cc4c(N[C@H](C)c5cccc(C(F)F)c5F)nc(C)nc4cc3OCC2C1 (some centres undefined) | 19 |  |  |  |  |  |  | IC50 (SOS1-KRAS): 8.8 nM |
| Cc1nc(N[C@H](C)c2cccc(C(F)F)c2F)c2cc3c(cc2n1)OC[C@H]1CN(C(=O)C(C)(C)C)CCN31 | 25 |  |  |  |  |  |  |  |
| COCCC(=O)N1CCN2c3cc4c(N[C@H](C)c5cccc(C(F)F)c5F)nc(C)nc4cc3OC[C@H]2C1 | 9.5 | 3340 | 5e-05 | 3.85 | 674 | 3.45 | 2.92 |  |
| Cc1nc(N[C@H](C)c2cccc(C(F)F)c2F)c2cc3c(cc2n1)OC[C@H]1CN(C(=O)C2CC2(F)F)CCN31 (some centres undefined) | 26 |  |  |  |  |  |  |  |
| CC(=O)N1CCOc2cc3nc(C)nc(N[C@H](C)c4cc(N)cc(C(F)(F)F)c4)c3cc21 | 780 |  |  |  |  |  |  | IC50 (SOS1-KRAS): 122 nM |
| CNC(=O)N1CCN2c3cc4c(N[C@H](C)c5cccc(C(F)F)c5F)nc(C)nc4cc3OC[C@H]2C1 | 15 | 2830 |  |  | 751 | 5.62 | 8 | Kel [3]: 0.26 h⁻¹; t1/2 [4]: 14.5 h |
| CC(=O)N1CCN2c3cc4c(N[C@H](C)c5cccc(C(F)(F)C(C)(C)O)c5F)nc(C)nc4cc3OC[C@H]2C1 | 10 |  |  |  |  |  |  | Cmax [8]: 5.03 ng/mL; IC50 (SOS1-KRAS): 12.7 nM; k el [9]: 3.89e-05 s⁻¹; half-life [10]: 3.24 h; Tmax [11]: 0.625 h; AUC [12]: 7.7 ng·h/mL; MRT [13]: 1 h |
| Cc1nc(N[C@H](C)c2cccc(C(F)F)c2F)c2cc3c(cc2n1)OC[C@H]1CN(C(=O)[C@@H]2CCOC2)CCN31 | 21 | 780 | 8.33e-06 | 18 | 47 | 9.65 | 8 |  |
| Cc1nc(N[C@H](C)c2cccc(C(F)F)c2F)c2cc3c(cc2n1)OC[C@H]1CN(C(=O)C2CCO2)CCN31 (some centres undefined) | 16 | 534 |  |  | 97.1 | 4.55 | 5.67 | Kel [3]: 0.13 h⁻¹; t1/2 [4]: 14.3 h |
| Cc1nc(N[C@H](C)c2cccc(C(F)F)c2F)c2cc3c(cc2n1)OC[C@H]1CN(C(=O)C2(C#N)CC2)CCN31 | 14 | 4460 | 5e-05 | 3.87 | 600 | 4.43 | 1.33 |  |
| Cc1nc(N[C@H](C)c2cc(N)cc(C(F)(F)F)c2)c2cc3c(cc2n1)OC[C@H]1CN(C)CCN31 | 11 |  |  |  |  |  |  | IC50 (SOS1-KRAS): 7.3 nM |
| Cc1nc(N[C@H](C)c2cccc(C(F)F)c2F)c2cc3c(cc2n1)OC[C@H]1CN(C(=O)C2C(C)(C)C2(C)C)CCN31 | 9 |  |  |  |  |  |  |  |
| Cc1nc(N[C@H](C)c2cc(N)cc(C(F)(F)F)c2)c2cc3c(cc2n1)OCCO3 | 690 |  |  |  |  |  |  | IC50 (SOS1-KRAS): 904 nM |
| Cc1nc(N[C@H](C)c2cccc(C(F)F)c2F)c2cc3c(cc2n1)OC[C@H]1CN(C2CCOCC2)CCN31 | 57 |  |  |  |  |  |  |  |
| Cc1nc(N[C@H](C)c2cccc(C(F)F)c2F)c2cc3c(cc2n1)OC[C@H]1CN(C(=O)C2CCOCC2)CCN31 | 18 | 646 | 9.44e-05 | 2.13 | 241 | 2.46 | 0.91 |  |
| COCC(=O)N1CCN2c3cc4c(N[C@H](C)c5cccc(C(F)F)c5F)nc(C)nc4cc3OC[C@H]2C1 | 10 | 860 | 3.06e-05 | 5.86 | 180 | 3.43 | 0.83 |  |
